Measurements as given in patent US10768184B2, “Methods for increasing palatability of pet foodstuff” (MARS, INCORPORATED, priority 2013, dated 2020).

Tests used:
cats = assay: Cat gel panel feeding test, monadic exposure (palatability, gel intake); format: in vivo
Procedure: A cat gel panel was used to compare the palatability of a range of concentrations of oleic acid in a monadic exposure. The dose response tested 8 concentrations of oleic acid ranging from 0.001% oleic acid to 1% oleic acid. All products (including the blank, 0% oleic acid) contained 25 mM L-histidine as an ingestive/positive tastant to increase the baseline gel intake, enabling the identification of a potential negative impact of the oleic acid concentration. A cat gel panel was used to compare the palatability of a range of concentrations of linoleic acid in a monadic exposure. The dose response tested 8 concentrations of linoleic acid ranging from 0.001% linoleic acid to 1% linoleic acid. All products (including the blank, 0% linoleic acid) contained 25 mM L-histidine as an ingestive/positive tastant to increase the baseline gel intake, enabling the identification of a potential negative impact of the linoleic acid concentration. A cat gel panel was used to compare the palatability of a range of concentrations of lauric acid in a monadic exposure. The dose response tested 5 concentrations of lauric acid ranging from 0.05% lauric acid to 1% lauric acid. All products (including the blank, 0% lauric acid) contained 25 mM L-histidine as an ingestive/positive tastant to increase the baseline gel intake, enabling the identification of a potential negative impact of the lauric acid concentration. A cat gel panel was used to compare the palatability of a range of concentrations of palmitic acid in a monadic exposure. The dose response tested 5 concentrations of palmitic acid ranging from 0.05% palmitic acid to 1% palmitic acid. All products (including the blank, 0% palmitic acid) contained 25 mM L-histidine as an ingestive/positive tastant to increase the baseline gel intake, enabling the identification of a potential negative impact of the palmitic acid concentration.

cat GPR120 = assay: Calcium-sensitive fluorescent dye (Fluo8) FLIPR assay, transiently transfected cells; format: cell-based; conditions: in vitro assays with the feline receptors
Procedure: These constructs were then transiently transfected into the CHO K1 immortalised cell line, and other commonly used cell lines using Lipofectamine 2000 and testing was performed to establish the successful expression of the target protein. The testing was carried out using a calcium sensitive fluorescent dye (Fluo8). Transfected cells were seeded into 384 well assay plates. By loading the cells with the dye and then challenging the cells with an agonist for the receptor the response of the cells could be recorded on the FLIPR^TETRA instrument by measuring the increase in fluorescence associated with intra-cellular calcium release, thus confirming the functional expression of the receptor. Suitable experimental controls eliminate any possibility that the response of the cells is non-specific or that the fluorescence increase is due to factors other than the release of intracellular calcium by the cells.

dogs = assay: Dog panel feeding test, monadic exposure (palatability, gel intake), two single-breed panels; format: in vivo; conditions: 100 mM L-histidine
Procedure: Two different dog panels were used to compare the palatability of concentrations of linoleic acid. Each panel was made up of a single breed of dog; each panel being a different breed. The canine panels were used to compare the palatability of a range of concentrations of linoleic acid in a monadic exposure. The dose response tested 3 concentrations of linoleic acid ranging from 0.01% linoleic acid to 1% linoleic acid. All products (including the blank, 0% linoleic acid) contained 100 mM L-histidine as an ingestive/positive tastant to increase the baseline gel intake, enabling the identification of a potential negative impact of the linoleic acid concentration. Two different dog panels were used to compare the palatability of concentrations of oleic acid. Each panel was made up of a single breed of dog; each panel being a different breed. The canine panels were used to compare the palatability of a range of concentrations of oleic acid in a monadic exposure. The dose response tested 3 concentrations of oleic acid ranging from 0.01% oleic acid to 1% oleic acid. All products (including the blank, 0% oleic acid) contained 100 mM L-histidine as an ingestive/positive tastant to increase the baseline gel intake, enabling the identification of a potential negative impact of the oleic acid concentration.

[1] = 0.1% fatty acid in gel with 25 mM L-histidine
[2] = dog panel Breed 1, 1% fatty acid (highest tested)
[3] = 0.6% fatty acid in gel with 25 mM L-histidine

Compound	intake compared to the blank (cats; any of the 5 concentrations tested, 0.05% to 1%, 25 mM L-histidine)	activation of feline receptors in vitro (cat GPR120)	intake compared to the blank (cats; [1])	intake compared to the blank (cats; higher concentrations (above 0.1%, up to 1%), 25 mM L-histidine)	response compared to the blank (dogs; [2])	response compared to the blank (dogs; dog panel Breed 2, 3 concentrations tested, 0.01% to 1%)	intake compared to the blank (cats; 0.2% (w/v) fatty acid in gel with 25 mM L-histidine)	intake compared to the blank (cats; 0.3% (w/v) fatty acid in gel with 25 mM L-histidine)	intake compared to the blank (cats; [3])	response compared to the blank (dogs; dog panel Breed 2, 0.1% fatty acid)	intake compared to the blank (cats; 1% fatty acid in gel with 25 mM L-histidine)
CCCCCCCCCCCCCCCC(=O)O [palmitic acid]	no significant difference	–	–	–	–	–	–	–	–	–	–
CCCCC/C=C\C/C=C\CCCCCCCC(=O)O [linoleic acid]	–	positive activation	significantly higher intake	trend for the higher concentrations to become aversive/negative	significant positive/ingestive response	smaller differences between the linoleic acid concentrations tested	–	–	–	–	–
CCCCCCCC/C=C\CCCCCCCC(=O)O [oleic acid]	–	positive activation	significantly higher intake	–	significant positive/ingestive response	–	significantly higher intake	significantly higher intake	significantly higher intake	significant positive/ingestive response	–
CCCCCCCCCCCC(=O)O [lauric acid]	–	–	highest intake overall	–	–	–	–	–	significantly aversive/negative	–	significantly aversive/negative
